The results in this text go back to US9834535B2, “Sulfamate derivative compounds for use in treating or alleviating pain” (Bio-Pharm Solutions Co., Ltd., priority 2013, dated 2017).

For one assay, the system named is SNL model. Kind of assay: Antiallodynic activity on Chung model (SNL, spinal nerve ligation; von Frey). The assay is classed as in vivo, Sprague-Dawley rats. As to conditions: rat, oral, 0.5 h; for ED50: von Frey. Here is the method: Male. Sprague-Dawley rats (200-220 g, Orient Bio, Korea) were habituated for 1 week before the experiment and allowed free access to food and water throughout the experimentation. Room temperature and humidity were maintained at 24±2° C. and 50±10%, respectively. Neuropathic surgery (SNL, Spinal nerve ligation) model was clone as described in Kim and Chung (1992). Briefly, animal under gaseous anesthesia with isoflurane a 4:4 flow ratio of NO2. The left lumber spinal nerve L5 and L6 were isolated and tightly ligated with 4-0 silk thread. The wound was treated with a gentamicin antibiotics solution (4 mg/kg, 4 ul/g, bw), and the wound muscle was closed with cat cut chrom 4/0 thread and skin was closed dafilon 4/0 tread. Sham controls were prepared in the same manner as the spinal nerves were exposed, but no ligated L5 and L6 nerves. But, vehicle controls were identical to SNL model, except for administration of vehicles.
(§1) Tactile sensitivity (Mechanical allodynia) was evaluated using von Frey monofilaments before and after treatment and animals were used withdrawal threshold value was less than 4 g. One week after surgery, SNL-operated animals (n=4˜6), sham-operated animals (n=4˜10) and vehicle-operated animals (n=4˜13) were tested for tactile sensitivity with von Frey monofilaments 3 trials in each animal. All Animals were placed in a stainless steel mashed chamber and habituated for 30 min in the test box. The tactile sensitivity for ipsilateral hind paw was measured using the up-and-down method (Dixon, 1980) with seven von Frey monofilaments (0.4, 1, 2, 4, 6, 8, and 15 g) to 3 trials. Tactile sensitivity test was followed by Dixon's method (Dixon, 1980). The 50% paw withdrawal threshold for each paw was calculated using the following formula: [Xth] log=[vFr] log+ky where [vFr] is the force of the last von Frey used, k=0.2249 which is the average interval (in log units) between the von Frey monofilaments, and y is a value that depends upon the pattern of withdrawal responses (Dixon, 1980).
All animals were fasted 18 h before the administration of the compounds. The antiallodynic effect of the compounds were evaluated at the various dose (n=5˜6), orally administrated in a volume of 5 ul/g, bw in a vehicle of 30% (v/v) PEG 400 or 20% (v/v) Tween 80 or Saline. […]
The relative values compared to the sham group (% control) were calculated and shown in Table 5, which show an antiallodynic effect of the test compounds on SNL model in rats.

For assay [1], the system named is hot plate withdrawal latency. Kind of assay: Hot-plate test. Type of assay: in vivo, ICR mice. The note with it: mouse, oral. The protocol: To examine the pain relief effect of the sulfamate derivative compounds, a hot-plate test was conducted in general pain animal model referring to Current Protocols in Neuroscience; Behavioral Neuroscience Unit 8.9.
ICR mice (male, 30-35 g: Orient Bio, Korea) were habituated before test in test room for 1 hour. Animals were fasted 2 hr before administration of compounds. […] All compounds were dissolved in a vehicle of 30% (v/v) PEG 400 or 20% (v/v) Tween 80. The control group was treated the vehicle without compounds.
[…] (Hu, X. et al, 2008), and then, measured as the withdrawal latency (cut-off time: 30 sec) time until the point when each mouse was taking off a paw from the plate, shaking, licking a paw or hind leg, or jumping from the plate.
Background: Thermal pain tests record how soon the animal reacts.

Assay [2] concerns tail-flick withdrawal latency. Kind of assay: Tail-flick test. The assay is classed as in vivo, ICR mice. The note with it: mouse, oral. Here is the method: To examine the pain relief effect of the sulfamate compounds, a tail-flick test was conducted in general pain animal model referring to Current Protocols in Neuroscience; Behavioral Neuroscience Unit 8.9.
ICR mice (male, 25-30 g; Orient Bio, Korea) were habituated before test in test room for 1 hour. Animals were fasted 2 hr before administration of compounds. Each of Compound was orally administered at the close of 150 mg/kg, 10 ul/g, bw (n=7˜10/group). All compounds were dissolved in a vehicle of 30% (v/v) PEG 400 or 20% (v/v) Tween 80. The control group was treated the vehicle without compounds.
After the administration of compounds, the mice tail were put on a tail-flick analgesia meter. To avoid tissue damage, maximal exposure time to pain stimuli was restricted to 15 s. The withdrawal latency was measured as the time to the point when each mouse response to the stimulus. The relative values compared to the control (% control) were calculated.
The relative values compared to the sham were calculated and shown in Table 12, which show effect of the compound of examples on tail-flick test in […].

For the next assay, the system named is CFA-induced pain model. Nature of the assay: Antiallodynic activity on Complete Freund's Adjuvant (CFA)-induced inflammatory pain model (von Frey). The note with it: Rattus norvegicus, ip, 0.5 h, 0.5 h, read-out: CFA model: effect (%) at the concentration administered. The assay is classed as in vivo, Sprague-Dawley rats. The protocol: Male, Sprague-Dawley rats (200-220 g, Nara Bio, Korea) were habituated for 1 week before surgery and allowed free access to food and water throughout the experimentation. Room temperature and humidity were maintained at 24±2° C. and 50±10%, respectively.
CFA-induced inflammatory pain was induced by the procedure of Nagakura et al. (2003) and Gregory P. et al. (2010) with minor modifications. CFA (sigma, USA) was injected in the left plantar with a 100 ul volume under gaseous anesthesia with isoflurane a 4:4 flow ratio of NO2 Sham controls were injected with 100 ul of saline and vehicle controls were identical to CFA infusion model, except for administration of vehicles.
as §1, with “treatment,” for “treatment”, “CFA-infused” for “SNL-operated”, “(n=12),” for “(n=4˜10)”, “(n=17)” for “(n=4˜13)”
[…] The test was performed peak time of efficacy (0.5 hr) after compound administration.
The relative values compared to the sham (% control) were calculated and shown in Table 4, which show an antiallodynic effect of the compound of Examples on CFA-induced pain model in rats.

Assay [3] deals with Post operation-induced pain model. Nature of the assay: Antiallodynic activity on post operative-induced pain model (von Frey). The assay is classed as in vivo, Sprague-Dawley rats. The note with it: 2 mg/kg, 0.5 h, rat, intraperitoneal. The protocol:
Male Sprague-Dawley rats′(Orient Bio, Korea), 300˜320 g, total of 201 rats were used (details in Table 7). Rats were habituated at least 3 clays before surgery and free access to food and water (room temperature and humidity were maintained at 24±2° C. and 50±10%, respectively). The process of performing the post-operation model's surgery was adapted from Brennan et al (1996). At first, rats with allodynia (threshold valueless than 8 g) were excluded in Pre-von Frey Test. During the post-operation surgery, rats were anesthetized under gaseous anesthesia with 2% isoflurane. Rats were laid face down on a plate fixed at 37° C. to prevent against hypothermia. The ipsilateral plantar aspect (left side) of the hind paw was prepared in a sterile manner with a 10% povidone-iodine solution. […]
For efficacy measure, the threshold value of group C was assigned 100% efficacy, and the percentage of the threshold values of group A compared to group C (for each different dose level) were calculated as the efficacies. Base on these efficacy values, ED50 was calculated using log fitting. […]
For pain threshold test, all animals were placed in a stainless steel meshed chamber and habituated for 30 min in the test box. The tactile sensitivity of the ipsilateral hind paw was measured using the up-and-down method (Dixon, 1980) with seven von Frey monofilaments (0.4, 1, 2, 4, 6, 8, and 15 g) using 3 trials. […]

Setting [4] is: read-out: SNL model: effect (%) at the concentration administered.

For orientation: ED50 means the dose at which the effect has come halfway, by size or by number of responders. A high value points to weaker potency.

As to `CC1(C)O[C@H](c2ccccc2F)[C@@H](COS(N)(=O)=O)O1` [Example 15, ((4R,5R)-5-(2-fluorophenyl)-2,2-dimethyl-1,3-dioxolan-4-yl)methyl sulfamate], the ED50 with SNL model came out at 69.8 mg/kg; in assay [1] (0.5 h), 113 mg/kg. The compound further had a tail-flick test: dose in assay [2] of over 200 mg/kg.
For `CC1(C)O[C@@H](COS(N)(=O)=O)[C@H](c2ccccc2F)O1` [Example 16, ((4S,5S)-5-(2-fluorophenyl)-2,2-dimethyl-1,3-dioxolan-4-yl)methyl sulfamate], the figures for the median effective dose (ED50) (in the assay on SNL model; in assay [1] (1 h)) were 24.6 mg/kg and 116 mg/kg, respectively. Moreover, in assay [2], the tail-flick test: dose was over 200 mg/kg.
Turning to `CC1(C)O[C@@H](COS(N)(=O)=O)[C@H](c2ccccc2I)O1` [Example 28, ((4S,5S)-5-(2-iodophenyl)-2,2-dimethyl-1,3-dioxolan-4-yl)methyl sulfamate], in the assay on CFA-induced pain model (rat, intraperitoneal), the response vs control in vivo at 40 mg/kg turned out to be 17.8%. The response vs control in vivo at 90 mg/kg with SNL model (setting [4]) worked out at 72.6%. Further, in assay [1] (100 mg/kg), the “Hot plate test: effect (%) at the concentration administered” value is reported as “^#100 (126.4%)”. Further, the tail-flick test: dose in assay [2] was over 200 mg/kg.
As for `NS(=O)(=O)OCC[C@H]1OC2(CCCC2)O[C@@H]1Cc1ccccc1` [Example 118, 2-((2R,3R)-3-benzyl-1,4-dioxaspiro[4,4]nonan-2-yl)ethyl sulfamate], the response vs control in vivo at 40 mg/kg with CFA-induced pain model (rat, intraperitoneal) is 25%. The response vs control in vivo at 90 mg/kg in the assay on SNL model (setting [4]) is 38.3%.
As for `CC1(C)O[C@H](COS(N)(=O)=O)[C@@H](Cc2ccccc2)O1` [Example 122, ((4R,5R)-5-benzyl-2,2-dimethyl-1,3-dioxolan-4-yl)methyl sulfamate], the response vs control in vivo at 18 mg/kg with CFA-induced pain model (18 mg/kg, rat, intraperitoneal) came out at 22.3%. For the same compound, in the assay on SNL model (50 mg/kg, read-out: SNL model: effect (%) at the concentration administered), the response vs control in vivo at 50 mg/kg amounted to 64.1%.
In the case of `CC1(C)O[C@H](CCOS(N)(=O)=O)[C@@H](Cc2ccccc2Cl)O1` [Example 138, 2-((4R,5R)-5-(2-chlorobenzyl)-2,2-dimethyl-1,3-dioxolan-4-yl)ethyl sulfamate], the response vs control in vivo at 40 mg/kg in the assay with CFA-induced pain model (rat, intraperitoneal) is 32.7%. Also, the response vs control in vivo at 90 mg/kg in the assay on SNL model (setting [4]) amounted to 71.4%.
The matching figures for `CC1(C)O[C@H](COS(N)(=O)=O)[C@@H](Cc2ccccc2Cl)O1` [Example 146, ((4R,5R)-5-(2-chlorobenzyl)-2,2-dimethyl-1,3-dioxolan-4-yl)methyl sulfamate]: 16.5% and 45.8%.
In the case of `CC1(C)O[C@@H](COS([NH-])(=O)=O)[C@H](c2ccccc2Cl)O1.[Na+]` [Example 177, sodium ((((4S,5S)-5-(2-chlorophenyl)-2,2-dimethyl-1,3-dioxolan-4-yl)methoxy)sulfonyl)amide], the response vs control in vivo at 15 mg/kg with CFA-induced pain model was determined as 67.2%. Further, the “Post Operation: effect (%) at the concentration administered” value in assay [3] is given as “^#2 (64.4%, 0.5 h)”.
